Source: patent US20090170867A1, “TRPV1 ANTAGONISTS INCLUDING SULFONAMIDE SUBSTITUENT AND USES THEREOF” (Shionogi & Co., Ltd., priority 2007, published 2009)

Tests used:
human TRPV1 [1] = target: T1, human TRPV1 (Homo sapiens, UniProt Q8NER1); experiment: Capsaicin-based assay, Protocol 2 (TRPV1/CHO cells, Fluo-4, FLIPR); assay type: cell-based; details: capsaicin 100 nM final, mean ± SEM, number of trials in parentheses, read-out: TRPV1 IC50 Potency, Human Capsaicin CHO (hCAP-CHO)
T1 construct: using primers designed surrounding the complete hTRPV1 open reading frame; expressed in transfected cells; host or cells: CHO-K1 cells stably transfected with pcDNA3.1(-)-hVR1 plasmid
T1 sequence (Q8NER1 whole entry): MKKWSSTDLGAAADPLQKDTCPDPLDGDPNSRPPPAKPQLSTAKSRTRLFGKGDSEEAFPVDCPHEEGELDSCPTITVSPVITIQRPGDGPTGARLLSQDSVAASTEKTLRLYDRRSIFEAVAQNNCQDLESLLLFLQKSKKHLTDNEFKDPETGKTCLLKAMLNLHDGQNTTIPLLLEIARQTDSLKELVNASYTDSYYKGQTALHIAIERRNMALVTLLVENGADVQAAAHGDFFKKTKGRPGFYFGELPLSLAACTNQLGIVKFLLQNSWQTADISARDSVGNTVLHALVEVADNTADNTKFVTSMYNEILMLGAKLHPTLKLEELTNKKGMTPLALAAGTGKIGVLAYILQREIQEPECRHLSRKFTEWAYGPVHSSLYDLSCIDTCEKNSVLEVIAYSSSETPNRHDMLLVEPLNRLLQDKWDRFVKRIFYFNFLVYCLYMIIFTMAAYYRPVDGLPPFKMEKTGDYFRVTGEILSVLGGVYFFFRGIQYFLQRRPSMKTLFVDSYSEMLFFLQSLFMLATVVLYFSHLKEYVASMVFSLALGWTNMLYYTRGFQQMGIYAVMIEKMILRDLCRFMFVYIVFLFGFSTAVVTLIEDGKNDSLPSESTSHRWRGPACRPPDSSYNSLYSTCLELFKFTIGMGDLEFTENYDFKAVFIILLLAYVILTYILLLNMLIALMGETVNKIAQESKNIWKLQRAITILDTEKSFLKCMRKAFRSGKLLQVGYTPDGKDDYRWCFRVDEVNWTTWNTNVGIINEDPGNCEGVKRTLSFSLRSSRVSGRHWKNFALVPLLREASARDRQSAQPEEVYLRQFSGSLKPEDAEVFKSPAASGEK
Description: The TRPV1/CHO cell line was generated as described below. […] The resulting PCR products were purified from agarose gels using Gel Band Purification Kit (GE Healthcare Bioscience) and were subcloned into pCR-Blunt vector (Invitrogen). The cloned cDNA was fully sequenced using a fluorescent dye-terminator reagent (BigDye Terminator ver3.1 Cycle Sequencing Kit, Applied Biosystems) and ABI Prism 3100 genetic analyzer (Applied Biosystems). The pCR-Blunt vector containing the hTRPV1 cDNA was subjected to restriction digestion with EcoRI. The restriction fragment was subcloned into expression vector pcDNA3.1 (-) (Invitrogen) and named pcDNA3.1 (-)-hVR1 plasmid. The sequence of the cDNA encoding TRPV1 is available at GenBank accession number AJ277028. […] The cells were transfected with the pcDNA3.1 (-)-hVR1 plasmid using FuGENE6 (Roche) according to the manufacturer's protocol. 24 hr after transfection, neomycin-resistant cells were selected using 1 mg/mL G418 (Nacalai Tesque). […] The cells expressing hTRPV1 were cultured in the growth medium supplemented with 1 mg/mL G418. […] Subsequently, the cells were loaded by incubation in 0.1 mL of wash buffer containing Fluo-4 at 3 μM final concentration. After 1 hour, the cells were washed twice with 0.2 mL wash buffer and resuspended in 0.1 mL wash buffer. The plates were then transferred to a Fluorescence Imaging Plate Reader (Molecular Devices). Fluorescence intensity was monitored for 15 seconds to establish a baseline. […] The final concentration of the compound was adjusted to range from 100 μM to 1.5625 μM. […] Data were collected over the entire time course and analyzed using Excel and the curve-fitting formula GraphPad Prism.

human TRPV1 [2] = target: T1, human TRPV1; experiment: pH-based assay, Protocol 2 (TRPV1/CHO cells, Fura-2 AM, FDSS-3000, pH 5.0-5.1); assay type: cell-based; details: H2SO4 agonist, mean ± SEM, number of trials in parentheses, read-out: TRPV1 IC50 Potency, Human pH CHO (hpH-CHO)
Description: For Protocol 2, a Chinese Hamster Ovary cell line (CHO) that has been engineered to constitutively express human recombinant TRPV1 was used (TRPV1/CHO cells). The TRPV1/CHO cell line was generated as described below.
The resulting PCR products were purified from agarose gels using Gel Band Purification Kit (GE Healthcare Bioscience) and were subcloned into pCR-Blunt vector (Invitrogen). The cloned cDNA was fully sequenced using a fluorescent dye-terminator reagent (BigDye Terminator ver3.1 Cycle Sequencing Kit, Applied Biosystems) and ABI Prism 3100 genetic analyzer (Applied Biosystems). The pCR-Blunt vector containing the hTRPV1 cDNA was subjected to restriction digestion with EcoRI. The restriction fragment was subcloned into expression vector pcDNA3.1 (−) (Invitrogen) and named pcDNA3.1 (−)-hVR1 plasmid. The sequence of the cDNA encoding TRPV1 is available at GenBank accession number AJ277028.
CHO-K1 cells were maintained in growth medium consisting of α-MEM, 10% FBS (Hyclone), and 100 IU/mL of penicillin-100 μg/mL of streptomycin mixed solution (Nacalai Tesque, Japan) at 37° C. in an environment of humidified 95% air and 5% CO2. The cells were transfected with the pcDNA3.1 (−)-hVR1 plasmid using FuGENE6 (Roche) according to the manufacturer's protocol. 24 hr after transfection, neomycin-resistant cells were selected using 1 mg/mL G418 (Nacalai Tesque). After 2 weeks, individual colonies were picked, expanded, and screened for the expression of hTRPV1 in the capsaicin-induced Ca^2+ influx assay (see below) with a FLIPR (Molecular Devices). A clone with the largest Ca^2+ response to capsaicin was selected and re-cloned by the same procedure. The cells expressing hTRPV1 were cultured in the growth medium supplemented with 1 mg/mL G418.
TRPV1/CHO cells were seeded in the 96-well clear-bottom black-wall plate (Nunc) at densities of 1-2×10^4 cells/well and grown in 100 μL of culture medium (alpha-MEM supplemented with 10% FBS, 20 mM HEPES, 1 mg/mL geneticin and 1% antibiotic-antimycotic mixed stock solution) for 1-2 days before the experiment.
Different agonist solutions with sulfuric acid concentrations of from 15 mM to 18 mM (see FIG. 1) were prepared by diluting 1M sulfuric acid with measuring buffer. The different sulfuric acid concentrations in the agonist solutions were selected such that a 1:4 dilution would result in a final sulfuric acid concentration of between 3.0 mM to 3.6 mM, respectively, as indicated in FIG. 1.
The cells were stimulated using 3.0 mM (well number B1-6), 3.1 mM (C1-6), 3.2 mM (D1-6), 3.3 mM (E1-6), 3.4 mM (F1-6), 3.5 mM (G1-6), or 3.6 mM (H1-6) H2SO4 or pH 7.2 measuring buffer without H2SO4 (A1-6) (FIG. 2).
(1) Culture medium was removed using an 8-channel-pipette (Rainin, USA) from the 96-well plate and the wells were refilled with 100 μL of loading buffer (20 mM HEPES, 115 mM NaCl, 5.4 mM KCl, 0.8 mM MgCl2, 1.8 mM CaCl2, 13.8 mM D-glucose, 2.5 mM probenecid, pH 7.4) containing 5 μM Fura-2 AM (Dojin, Japan).
(2) The 96-well plate was incubated at 37° C. for 45 min.
(3) The loading buffer was removed from each well. The cells were subsequently washed twice with 150 μL of measuring buffer (20 mM HEPES, 115 mM NaCl, 5.4 mM KCl, 0.8 mM MgCl2, 5.0 mM CaCl2, 13.8 mM D-glucose, 0.1% BSA, pH 7.4) (no probenecid). The wells were then refilled with 80 μL of measuring buffer.
(4) After an incubation at 4° C. for 15 min, the 96-well plate was transferred to FDSS-3000 (Hamamatsu Photonics, Japan).
(5) The Fura-2 fluorescent intensity was monitored at a wavelength of 340 nm and at 380 nm, respectively, at a rate of 0.5 Hz for a total of 240 seconds.

Row | SMILES | IC50 (human TRPV1 [1]) [nM] | IC50 (human TRPV1 [2]) [nM]
1 | O=C(Nc1ccc(OC(F)(F)F)c(Cl)c1)N1CCC(F)(c2ncc([C@H](O)CO)cc2Cl)CC1 [Compound M1] | 37.5 ± 9 | 5.7 ± 0.3
2 | O=C(Nc1ccc(C(F)(F)F)c(F)c1)N1CC=C(c2ncc(CO)cc2Cl)CC1 [Compound M2] | 156 ± 5.6 | 42 ± 9.1
3 | O=C(Nc1ccc(C(F)(F)F)c(Cl)c1)N1CC=C(c2ncc([C@@H](O)CO)cc2Cl)CC1 [Compound M3] | 187 ± 43.7 | 30 ± 2.1
4 | O=C(Nc1ccc(C(F)(F)F)cc1)N1CCN(c2ncc([C@H](O)CO)cc2Cl)CC1 [Compound M6, (S)-4-(3-chloro-5-(1,2-dihydroxyethyl)pyridin-2-yl)-N-(4-(trifluoromethyl)phenyl)piperazine-1-carboxamide] | 7 ± 1 | 3.5 ± 1
5 | CCOc1cc(NC(=O)N2CC=C(c3ncc(CO)cc3Cl)CC2)ccc1C(F)(F)F [Compound N2] | 161 ± 16.6 | 27.3 ± 2.6
6 | O=C(Nc1ccc(C(F)(F)F)cn1)N1CC=C(c2ncc([C@@H](O)CO)cc2Cl)CC1 [Compound N3, (R)-4-(3-chloro-5-(1,2-dihydroxyethyl)pyridin-2-yl)-N-(5-(trifluoromethyl)pyridin-2-yl)-5,6-dihydropyridine-1(2H)-carboxamide] | 161 ± 41.7 | 223 ± 14
7 | CCCOc1cc(NC(=O)N2CC=C(c3ncc(CO)cc3Cl)CC2)ccc1C(F)(F)F [Compound O2] | 162 ± 29.5 | 18.8 ± 4
8 | O=C(Nc1ccc(Br)c(C(F)(F)F)c1)N1CC=C(c2ncc([C@H](O)CO)cc2Cl)CC1 [Compound P2] | 173 ± 40.3 | 44.4
9 | O=C(Nc1nc2ccc(Cl)cc2s1)N1CC=C(c2ncc([C@@H](O)CO)cc2Cl)CC1 [Compound P3] | 183 ± 38.1 | 28.5
10 | O=C(Nc1ccc(S(=O)(=O)C(F)(F)F)cc1)N1CC=C(c2ncc([C@H](O)CO)cc2Cl)CC1 [Compound Q1] | 51 ± 16.4 | 8.1 ± 0.7
11 | O=C(Nc1ccc(OC(F)(F)F)cc1)N1CC=C(c2ncc(CO)cc2Cl)CC1 [Compound Q2] | 194 ± 27.1 | 85.9 ± 21.8
12 | O=C(Nc1ccc(OC(F)(F)F)c(Br)c1)N1CC=C(c2ncc(CO)cc2Cl)CC1 [Compound R2] | 200 ± 26.8 | 49.6 ± 3.4
13 | O=C(Nc1ccc(C(F)(F)F)c(Cl)c1)N1CC=C(c2ncc(CO)cc2Cl)CC1 [Compound S2] | 205 ± 35.4 | 31.9 ± 2.5
14 | Cc1cc(NC(=O)N2CC=C(c3ncc([C@H](O)CO)cc3F)CC2)ccc1OC(F)(F)F [Compound S3] | 17.7 ± 2 | 9.2
15 | O=C(Nc1ccc(Cl)c(C(F)(F)F)c1)N1CCC(F)(c2ncc([C@H](O)CO)cc2Cl)CC1 [Compound T1] | 60.3 ± 19 | 29.7 ± 2.3
16 | O=C(Nc1ccc(C(F)(F)F)c(Cl)c1)N1CCC(F)(c2ncc([C@@H](O)CO)cc2Cl)CC1 [Compound T3] | 23.8 ± 6.8 | 12.9
